# Results as given in publication PMC3914206.
# Tests used:
# Format in all cases: binding
# Parameters in all cases: KINOMEscan: ABL1(F317L)-phosphorylated / KINOMEscan: ABL1(H396P)-nonphosphorylated / KINOMEscan: ABL1(H396P)-phosphorylated / KINOMEscan: ABL1(M351T)-phosphorylated / KINOMEscan: ABL1(T315I)-phosphorylated / KINOMEscan: ABL1-nonphosphorylated / KINOMEscan: ABL1-phosphorylated / KINOMEscan: ACVR2A / KINOMEscan: ACVR2B / KINOMEscan: ADCK3 / KINOMEscan: ADCK4 / KINOMEscan: AKT1 / KINOMEscan: AKT3 / KINOMEscan: ALK / KINOMEscan: ARK5 / KINOMEscan: AURKA / KINOMEscan: AURKC / KINOMEscan: BIKE / KINOMEscan: BMPR1A / KINOMEscan: BMPR1B / KINOMEscan: BMX / KINOMEscan: BRK / KINOMEscan: BRSK1 / KINOMEscan: BRSK2 / KINOMEscan: CAMK1 / KINOMEscan: CAMK1D / KINOMEscan: CAMK1G / KINOMEscan: CAMK2A / KINOMEscan: CAMK2B / KINOMEscan: AAK1 / KINOMEscan: CAMK2D / KINOMEscan: CAMK2G / KINOMEscan: ABL1(F317I)-nonphosphorylated / KINOMEscan: ABL1(F317I)-phosphorylated / KINOMEscan: ABL1(F317L)-nonphosphorylated: unit: % Ctrl
# Settings in all cases: Compound Concentration 10 µM
# panel of 442 kinases [1] = target: T1, panel of 442 kinases (Homo sapiens, UniProt P16591)
# T1 construct: purchased KINOMEscan
# T1 sequence (P16591 whole entry): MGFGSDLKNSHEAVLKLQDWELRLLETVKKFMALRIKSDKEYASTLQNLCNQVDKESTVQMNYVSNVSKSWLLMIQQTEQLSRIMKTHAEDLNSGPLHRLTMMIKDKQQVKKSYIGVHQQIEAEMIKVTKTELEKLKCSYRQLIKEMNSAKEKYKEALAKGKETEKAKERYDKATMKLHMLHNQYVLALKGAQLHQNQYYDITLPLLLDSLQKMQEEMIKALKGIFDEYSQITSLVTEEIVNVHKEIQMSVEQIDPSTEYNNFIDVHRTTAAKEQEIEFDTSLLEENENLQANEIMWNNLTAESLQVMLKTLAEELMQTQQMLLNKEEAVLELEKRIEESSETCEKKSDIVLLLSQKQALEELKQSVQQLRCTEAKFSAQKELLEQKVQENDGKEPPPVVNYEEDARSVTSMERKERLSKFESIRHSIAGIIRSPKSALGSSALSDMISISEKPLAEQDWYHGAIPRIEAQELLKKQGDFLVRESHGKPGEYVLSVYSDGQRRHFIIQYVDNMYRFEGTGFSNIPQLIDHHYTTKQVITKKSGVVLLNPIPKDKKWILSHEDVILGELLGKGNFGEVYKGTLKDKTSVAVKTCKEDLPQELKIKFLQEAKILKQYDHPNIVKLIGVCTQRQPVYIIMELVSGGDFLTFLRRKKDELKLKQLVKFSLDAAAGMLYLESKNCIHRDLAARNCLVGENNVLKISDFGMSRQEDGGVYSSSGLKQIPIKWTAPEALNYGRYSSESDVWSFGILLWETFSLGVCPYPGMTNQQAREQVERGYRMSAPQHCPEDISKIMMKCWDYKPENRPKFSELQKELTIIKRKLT
# Text: (§1) We assessed the selectivity of members of this scaffold using the KINOMEscan methodology across a near comprehensive panel of 442 kinases [[18,27]].
# panel of 442 kinases [2] = target: T2, panel of 442 kinases (Homo sapiens, UniProt P54764)
# T2 construct: purchased KINOMEscan
# T2 sequence (P54764 20-986): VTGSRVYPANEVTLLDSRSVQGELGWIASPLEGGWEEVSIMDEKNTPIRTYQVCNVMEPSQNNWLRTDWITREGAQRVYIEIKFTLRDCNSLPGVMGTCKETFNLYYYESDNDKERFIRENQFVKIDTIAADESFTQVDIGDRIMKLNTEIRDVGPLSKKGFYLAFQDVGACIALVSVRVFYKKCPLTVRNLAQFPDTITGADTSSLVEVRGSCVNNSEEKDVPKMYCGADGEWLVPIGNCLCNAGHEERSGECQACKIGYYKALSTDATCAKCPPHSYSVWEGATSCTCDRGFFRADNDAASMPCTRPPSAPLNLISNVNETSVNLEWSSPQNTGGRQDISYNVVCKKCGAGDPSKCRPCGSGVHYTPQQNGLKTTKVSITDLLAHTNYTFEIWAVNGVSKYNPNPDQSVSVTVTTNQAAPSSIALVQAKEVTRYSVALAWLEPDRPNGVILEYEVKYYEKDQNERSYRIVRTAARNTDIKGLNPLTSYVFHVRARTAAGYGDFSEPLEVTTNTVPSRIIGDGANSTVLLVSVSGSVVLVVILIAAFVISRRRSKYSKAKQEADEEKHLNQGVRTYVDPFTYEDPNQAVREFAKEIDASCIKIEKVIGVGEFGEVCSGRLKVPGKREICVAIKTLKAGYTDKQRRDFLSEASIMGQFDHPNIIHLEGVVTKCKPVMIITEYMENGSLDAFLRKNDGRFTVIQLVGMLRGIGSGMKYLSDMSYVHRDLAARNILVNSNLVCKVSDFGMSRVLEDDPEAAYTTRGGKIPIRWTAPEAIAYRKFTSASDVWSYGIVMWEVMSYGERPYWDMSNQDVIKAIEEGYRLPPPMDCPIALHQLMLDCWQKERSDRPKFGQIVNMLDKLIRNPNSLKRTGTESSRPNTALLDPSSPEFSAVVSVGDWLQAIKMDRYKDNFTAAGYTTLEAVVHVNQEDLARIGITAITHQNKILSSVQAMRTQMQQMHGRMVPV
# Text: as §1
# panel of 442 kinases [3] = target: T3, panel of 442 kinases (Homo sapiens, UniProt Q8NEV4)
# T3 construct: purchased KINOMEscan
# T3 sequence (Q8NEV4 whole entry): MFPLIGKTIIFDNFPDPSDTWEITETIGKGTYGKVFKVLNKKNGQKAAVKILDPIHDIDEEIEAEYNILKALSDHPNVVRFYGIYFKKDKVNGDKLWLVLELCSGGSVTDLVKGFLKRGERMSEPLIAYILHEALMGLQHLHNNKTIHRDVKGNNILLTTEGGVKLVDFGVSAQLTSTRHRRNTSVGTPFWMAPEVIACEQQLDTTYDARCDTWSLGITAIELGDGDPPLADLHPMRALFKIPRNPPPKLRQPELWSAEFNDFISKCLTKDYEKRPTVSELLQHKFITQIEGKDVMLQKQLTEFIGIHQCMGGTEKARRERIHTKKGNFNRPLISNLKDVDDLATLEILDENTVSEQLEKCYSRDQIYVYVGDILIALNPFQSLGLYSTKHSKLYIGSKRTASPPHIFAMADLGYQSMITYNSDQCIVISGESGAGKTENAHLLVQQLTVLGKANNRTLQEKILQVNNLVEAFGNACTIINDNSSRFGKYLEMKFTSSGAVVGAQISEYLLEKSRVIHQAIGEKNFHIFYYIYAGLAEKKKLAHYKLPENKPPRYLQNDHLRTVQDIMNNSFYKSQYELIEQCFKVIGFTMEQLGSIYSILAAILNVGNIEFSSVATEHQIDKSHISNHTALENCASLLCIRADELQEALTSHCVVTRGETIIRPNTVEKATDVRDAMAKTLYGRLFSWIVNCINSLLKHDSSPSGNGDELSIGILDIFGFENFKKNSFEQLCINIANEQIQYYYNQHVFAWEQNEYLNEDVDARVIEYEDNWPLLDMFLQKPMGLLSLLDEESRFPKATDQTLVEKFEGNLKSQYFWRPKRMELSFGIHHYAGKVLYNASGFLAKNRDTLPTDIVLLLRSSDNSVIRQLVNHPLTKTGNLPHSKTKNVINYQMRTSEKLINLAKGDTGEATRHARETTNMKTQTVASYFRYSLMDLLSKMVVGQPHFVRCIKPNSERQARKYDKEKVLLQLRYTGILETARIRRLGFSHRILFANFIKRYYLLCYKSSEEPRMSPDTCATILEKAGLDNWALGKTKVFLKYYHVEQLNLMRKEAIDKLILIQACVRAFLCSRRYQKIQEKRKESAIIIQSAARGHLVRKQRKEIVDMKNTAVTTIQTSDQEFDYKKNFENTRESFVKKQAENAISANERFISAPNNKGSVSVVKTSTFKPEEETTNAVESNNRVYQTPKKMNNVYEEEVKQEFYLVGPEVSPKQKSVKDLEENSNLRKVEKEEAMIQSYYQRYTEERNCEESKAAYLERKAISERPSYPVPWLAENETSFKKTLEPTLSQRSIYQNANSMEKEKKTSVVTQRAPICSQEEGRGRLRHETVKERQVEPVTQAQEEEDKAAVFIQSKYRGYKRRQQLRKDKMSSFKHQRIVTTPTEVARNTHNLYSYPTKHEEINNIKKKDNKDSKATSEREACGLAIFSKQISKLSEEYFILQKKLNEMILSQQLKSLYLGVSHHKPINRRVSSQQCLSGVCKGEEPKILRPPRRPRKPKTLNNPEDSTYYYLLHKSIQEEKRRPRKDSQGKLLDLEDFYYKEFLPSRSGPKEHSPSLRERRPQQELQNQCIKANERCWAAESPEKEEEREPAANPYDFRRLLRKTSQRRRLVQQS
# Text: as §1
# panel of 442 kinases [4] = target: T4, panel of 442 kinases (Homo sapiens, UniProt Q96NX5)
# T4 construct: purchased KINOMEscan
# T4 sequence (Q96NX5 whole entry): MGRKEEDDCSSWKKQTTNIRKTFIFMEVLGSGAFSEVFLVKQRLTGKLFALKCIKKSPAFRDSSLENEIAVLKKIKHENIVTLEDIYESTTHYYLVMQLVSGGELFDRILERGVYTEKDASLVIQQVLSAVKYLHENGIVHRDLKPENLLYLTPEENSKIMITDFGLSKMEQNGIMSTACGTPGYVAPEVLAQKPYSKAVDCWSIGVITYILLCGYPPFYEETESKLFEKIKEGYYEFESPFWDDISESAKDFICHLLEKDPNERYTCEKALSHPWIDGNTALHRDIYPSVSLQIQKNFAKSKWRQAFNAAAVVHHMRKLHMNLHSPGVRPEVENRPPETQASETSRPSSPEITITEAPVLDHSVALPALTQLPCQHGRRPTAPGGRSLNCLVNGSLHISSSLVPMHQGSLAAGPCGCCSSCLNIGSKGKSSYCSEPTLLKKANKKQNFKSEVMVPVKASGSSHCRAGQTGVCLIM
# Text: as §1
smiles,measurement,setting,value
"COc1cc(C(=O)N2CCC(N3CCN(C)CC3)CC2)ccc1Nc1ncc2c(n1)N(C1CCCC1)c1ccccc1C(=O)N2C [Compound 25, 11-cyclopentyl-2-((2-methoxy-4-(4-(4-methylpiperazin-1-yl)piperidine-1-carbonyl)phenyl)amino)-5-methyl-5H-benzo[e]pyrimido[5,4-b][1,4]diazepin-6(11H)-one]",KINOMEscan: FER,panel of 442 kinases [1],38
same,KINOMEscan: EPHA4,panel of 442 kinases [2],100
same,KINOMEscan: MYO3A,panel of 442 kinases [3],86
same,KINOMEscan: CAMK1G,panel of 442 kinases [4],90
CCOc1cc(C(=O)N2CCC(N3CCN(C)CC3)CC2)ccc1Nc1ncc2c(n1)N(C1CCCC1)c1ccccc1C(=O)N2C [Compound 26],KINOMEscan: FER,panel of 442 kinases [1],96
same,KINOMEscan: EPHA4,panel of 442 kinases [2],100
same,KINOMEscan: MYO3A,panel of 442 kinases [3],100
same,KINOMEscan: CAMK1G,panel of 442 kinases [4],95
COc1cc(C(=O)N2CCC(N3CCN(C)CC3)CC2)ccc1Nc1ncc2c(n1)N1CCc3cccc(c31)C(=O)N2C [Compound 24],KINOMEscan: FER,panel of 442 kinases [1],64
same,KINOMEscan: EPHA4,panel of 442 kinases [2],97
same,KINOMEscan: CAMK1G,panel of 442 kinases [4],56
COc1cc(C(=O)N2CCC(N3CCN(C)CC3)CC2)ccc1Nc1ncc2c(n1)N(C)c1ccccc1C(=O)N2C [15 (LRRK2-IN-1)],KINOMEscan: FER,panel of 442 kinases [1],51
same,KINOMEscan: EPHA4,panel of 442 kinases [2],89
same,KINOMEscan: MYO3A,panel of 442 kinases [3],94
same,KINOMEscan: CAMK1G,panel of 442 kinases [4],74
